Laboratory results from patent US20090111736A1, “Orally-Absorbed Solid Dose Formulation for Vancomycin” (SRI International, priority 2007, published 2009).
Structures can show the parent of a compound that is named as a salt.

Tested on: rat jejunum
Test: In vitro mucosal-to-serosal vancomycin transport, modified Ussing chambers, jejunum
Type: in vitro ADME
Settings: jejunum
Source text: We investigated regional variation in permeation of vancomycin (VCM) across various segments of rat intestine and colon in vitro by mounting isolated segments of rat intestine and colon between horizontal modified Ussing chambers. The effects of drug concentration and of addition of a p-glycoprotein inhibitor or permeation enhancer(s) as formulation additives on VCM permeation were also studied in vitro using segments of rat jejunum.
Methods: A modified Ussing system (Easy mount Ussing system, Physiological Instruments Inc., CA, Item # EM-CSYS-8) with eight sets of chambers was used for all in vitro studies; each set consisted of two parallel diffusion chambers, a heating block for temperature control, needle valves for gas flow adjustment and gas mixing, and Ag/AgCl voltage and current electrodes for measuring transepithelial voltage and for passing current.
Harvesting of required small intestinal or colon segments of a male rat was performed using experimental procedures described in the literature (Gotoh et al., J Biomol Screen (2005) 10:517-23). The harvested segments of small intestine or colon were mounted on sliders placed between the two horizontal chambers of a modified Ussing system.
VCM was dissolved in HEPES buffer pH 7.4 (Table 1) previously saturated with 100% O2 or HEPES buffer containing additives selected from permeation enhancer(s) and/or an efflux transport inhibitor (Table 2) to obtain predetermined concentrations of drug and additive(s).
Drug transport across epithelial membranes of harvested rat small intestine and colon segments, in mucosal-to-serosal (M-to-S) direction, was studied using modified Ussing Chambers. Aliquots of HEPES buffer (5 ml) were initially added to both the mucosal and serosal chambers and allowed to equilibrate for 20 minutes. The HEPES buffer in the mucosal chamber was replaced by a study sample containing VCM alone or VCM and selected additive(s) in HEPES buffer, e.g., 5 mg/mL of VCM dissolved in HEPES buffer containing 10% w/w Labrasol®. Aliquots of 0.5 mL buffer solutions were removed periodically from serosal chambers, and replaced with equal volumes of fresh warm (37±2° C.) HEPES buffer previously saturated with 100% O2. […]
Changes in transepithelial short-circuit current (in micro-Amps) and membrane resistance (in Ohms) as a function of time were monitored continuously during in vitro studies to serve as indicators of tissue viability and drug permeability, respectively. The buffer samples from the receptor chambers were analyzed for VCM content on a high pressure liquid chromatograph (HPLC; Hewlett Packard Model 1100 series).
The analysis of VCM samples was performed using a reverse phase gradient HPLC method, with a Hypersil BDS C18 column, 5 μm, 150×4.6 mm., mobile phase consisting of 5 mM potassium phosphate monobasic in water (pH 3) as solvent A and acetonitrile as solvent B at a flow rate of 1 ml/min (Farin et al., J Pharm Biomed Anal (1998) 18:367-72). The eluant was monitored by a UV/diode array detector at 280 nm.
To compare data obtained from different in vitro experiments, the apparent permeability coefficients were calculated using the equation: […]
Where dQ/dt is the linear appearance rate of mass in receiver compartment, C0 is the initial solute concentration in donor compartment, and A is the surface area (Luo et al., Drug Metab Dispos (2002) 30:763-70).

CN[C@H](CC(C)C)C(=O)N[C@H]1C(=O)N[C@@H](CC(N)=O)C(=O)N[C@H]2C(=O)N[C@H]3C(=O)N[C@H](C(=O)N[C@H](C(=O)O)c4cc(O)cc(O)c4-c4cc3ccc4O)[C@H](O)c3ccc(c(Cl)c3)Oc3cc2cc(c3O[C@@H]2O[C@H](CO)[C@@H](O)[C@H](O)[C@H]2O[C@H]2C[C@](C)(N)[C@H](O)[C@H](C)O2)Oc2ccc(cc2Cl)[C@H]1O [Vancomycin hydrochloride]
Ave. Cumulative Amt VCM Released (50 mg/ml in HEPES buffer without enhancer, 0.5 hr): 0.97 ± 1.37 µg | Ave. Cumulative Amt VCM Released (50 mg/ml in HEPES buffer without enhancer, 1.0 hr): 7.94 ± 5.19 µg | Ave. Cumulative Amt VCM Released (50 mg/ml in HEPES buffer without enhancer, 1.5 hr): 22.26 ± 4.61 µg | Ave. Cumulative Amt VCM Released (50 mg/ml in HEPES buffer without enhancer, 2.0 hr): 46.13 ± 1.25 µg | Ave. Cumulative Amt VCM Released (50 mg/ml in HEPES buffer without enhancer, 2.5 hr): 69.54 ± 4.20 µg | Ave. Cumulative Amt VCM Released (5% Gelucire ® 44/14 (w/w), 0.5 hr): 0.40 ± 0.79 µg | Ave. Cumulative Amt VCM Released (5% Gelucire ® 44/14 (w/w), 1.0 hr): 3.72 ± 0.40 µg | Ave. Cumulative Amt VCM Released (5% Gelucire ® 44/14 (w/w), 1.5 hr): 6.81 ± 1.07 µg | Ave. Cumulative Amt VCM Released (5% Gelucire ® 44/14 (w/w), 2.0 hr): 10.87 ± 1.53 µg | Ave. Cumulative Amt VCM Released (5% Gelucire ® 44/14 (w/w), 2.5 hr): 14.29 ± 2.36 µg | Ave. Cumulative Amt VCM Released (5% Gelucire ® 44/14 + 5% Labrasol ® (w/w), 0.5 hr): 0.81 ± 1.40 µg | Ave. Cumulative Amt VCM Released (5% Gelucire ® 44/14 + 5% Labrasol ® (w/w), 1.0 hr): 3.56 ± 0.25 µg | Ave. Cumulative Amt VCM Released (5% Gelucire ® 44/14 + 5% Labrasol ® (w/w), 1.5 hr): 6.63 ± 1.67 µg | Ave. Cumulative Amt VCM Released (5% Gelucire ® 44/14 + 5% Labrasol ® (w/w), 2.0 hr): 9.58 ± 1.81 µg | Ave. Cumulative Amt VCM Released (5% Gelucire ® 44/14 + 5% Labrasol ® (w/w), 2.5 hr): 13.78 ± 5.10 µg | Ave. Cumulative Amt VCM Released (5% Polysorbate-80 (w/w), 0.5 hr): 0.00 ± 0.00 µg | Ave. Cumulative Amt VCM Released (5% Polysorbate-80 (w/w), 1.0 hr): 2.33 ± 0.24 µg | Ave. Cumulative Amt VCM Released (5% Polysorbate-80 (w/w), 1.5 hr): 5.69 ± 1.64 µg | Ave. Cumulative Amt VCM Released (5% Polysorbate-80 (w/w), 2.0 hr): 10.15 ± 2.82 µg | Ave. Cumulative Amt VCM Released (5% Polysorbate-80 (w/w), 2.5 hr): 15.99 ± 3.24 µg | Ave. Cumulative Amt VCM Released (5% Polysorbate-80 + 5% w/w Labrasol ®, 0.5 hr): 0.00 ± 0.00 µg | Ave. Cumulative Amt VCM Released (5% Polysorbate-80 + 5% w/w Labrasol ®, 1.0 hr): 2.36 ± 0.16 µg | Ave. Cumulative Amt VCM Released (5% Polysorbate-80 + 5% w/w Labrasol ®, 1.5 hr): 3.85 ± 0.39 µg | Ave. Cumulative Amt VCM Released (5% Polysorbate-80 + 5% w/w Labrasol ®, 2.0 hr): 6.05 ± 0.80 µg | Ave. Cumulative Amt VCM Released (5% Polysorbate-80 + 5% w/w Labrasol ®, 2.5 hr): 10.12 ± 1.39 µg | Ave. Cumulative Amt VCM Released (5% TPGS ® + 5% Labrasol ® (w/w), 0.5 hr): 0.00 ± 0.00 µg | Ave. Cumulative Amt VCM Released (5% TPGS ® + 5% Labrasol ® (w/w), 1.0 hr): 1.26 ± 1.78 µg | Ave. Cumulative Amt VCM Released (5% TPGS ® + 5% Labrasol ® (w/w), 1.5 hr): 3.48 ± 1.13 µg | Ave. Cumulative Amt VCM Released (5% TPGS ® + 5% Labrasol ® (w/w), 2.0 hr): 6.40 ± 2.08 µg | Ave. Cumulative Amt VCM Released (5% TPGS ® + 5% Labrasol ® (w/w), 2.5 hr): 10.03 ± 3.20 µg | Papp value compared with VCM alone (5% w/w Labrasol® with 5% w/w Gelucire® 44/14): slightly higher than that of VCM alone | effect on M-to-S transport of VCM (5% w/w Labrasol® with 5% w/w Polysorbate 80): slightly reduced VCM transport | effect on M-to-S transport of VCM (5% w/w Labrasol® with 5% w/w Vitamin E TPGS®): slightly reduced VCM transport | Ave. Cumulative Amt VCM Released (10% Labrasol ® (w/w), 0.5 hr): 3.65 ± 1.22 µg | Ave. Cumulative Amt VCM Released (10% Labrasol ® (w/w), 1.0 hr): 3.72 ± 2.58 µg | Ave. Cumulative Amt VCM Released (10% Labrasol ® (w/w), 1.5 hr): 5.52 ± 1.36 µg | Ave. Cumulative Amt VCM Released (10% Labrasol ® (w/w), 2.0 hr): 7.48 ± 1.11 µg | Ave. Cumulative Amt VCM Released (10% Labrasol ® (w/w), 2.5 hr): 9.93 ± 1.23 µg | VCM transport compared with VCM alone or other excipients (10% w/w Labrasol®): lowest | effect on M-to-S transport of VCM (Gelucire® 44/14 at 5% w/w): enhanced M-to-S transport | Ave. Cumulative Amt VCM Released (HEPES only, no enhancer (enhancer / bile salt study), 0.5 hr): 0.00 ± 0.00 µg | Ave. Cumulative Amt VCM Released (HEPES only, no enhancer (enhancer / bile salt study), 1.0 hr): 2.16 ± 1.47 µg | Ave. Cumulative Amt VCM Released (HEPES only, no enhancer (enhancer / bile salt study), 1.5 hr): 4.13 ± 0.74 µg | Ave. Cumulative Amt VCM Released (HEPES only, no enhancer (enhancer / bile salt study), 2.0 hr): 8.28 ± 1.80 µg | Ave. Cumulative Amt VCM Released (HEPES only, no enhancer (enhancer / bile salt study), 2.5 hr): 14.45 ± 3.07 µg | Ave. Cumulative Amt VCM Released (No SD (sodium decanoate study), 0.5 hr): 0.00 ± 0.00 µg | Ave. Cumulative Amt VCM Released (No SD (sodium decanoate study), 1.0 hr): 0.00 ± 0.00 µg | Ave. Cumulative Amt VCM Released (No SD (sodium decanoate study), 1.5 hr): 0.00 ± 0.00 µg | Ave. Cumulative Amt VCM Released (No SD (sodium decanoate study), 2.0 hr): 1.43 ± 0.10 µg | Ave. Cumulative Amt VCM Released (No SD (sodium decanoate study), 2.5 hr): 2.15 ± 0.19 µg | effect on M-to-S transport of VCM (Polysorbate 80 at 5% w/w): enhanced M-to-S transport
